Test results reported in patent publication US20230312504A1, “QUINOLINE COMPOUNDS” (Guangzhou Baiyunshan Pharmaceutical Holdings Co., Ltd. …, priority 2020, published 2023).

Legend:
[1] = target: human wild-type RET kinase (Homo sapiens (Human), UniProt P07949); test: 33P-labeled kinase activity assay, wild-type RET; assay type: biochemical; details: 33P-ATP at Km concentration; read-out: RET(WT) IC50
Protocol: (§1) The inhibitory activity of the test compounds against human wild-type and V804M mutant RET kinase was evaluated by measuring IC50 values in a ^33P-labeled kinase activity assay (Reaction Biology Corp).
(§2) Buffer conditions: 20 mM hydroxyethyl-piperazine-ethanesulfonic acid (Hepes) (pH 7.5), 10 mM MgCl2, 1 mM ethylene glycol-bis(aminoethyl ether)-tetraacetic acid (EGTA), 0.02% polyoxyethylene lauryl ether (Brij35), 0.02 mg/mL BSA, 0.1 mM Na3VO4, 2 mM dithiothreitol (DTT), and 1% DMSO.
(§3) Compound handling: testing compounds were dissolved in 100% DMSO to specific concentration. Serial dilution can be conducted using Integra Viaflo Assist in DMSO.
(§4) Procedures: the substrate was dissolved in freshly prepared Reaction Buffer, the test kinase was added into the substrate solution and gently mixed. Compounds in DMSO were added into the above kinase reaction mixture by Acoustic technology (Echo550) and incubate for 20 minutes at room temperature. The concentrations of the compounds in the reaction solutions were 3 μM, 1 μM, 0.333 μM, 0.111 μM, 0.0370 μM, 0.0123 μM, 4.12 nM, 1.37 nM, 0.457 nM and 0.152 nM. […] The reaction was conducted for 120 minutes at room temperature, and radioactivity was detected by filter-binding method. Kinase activity data can be expressed as the percent remaining kinase activity in test samples compared to vehicle (DMSO only) reactions. […]

[2] = target: human V804M mutant RET kinase (Homo sapiens (Human), UniProt P07949, V804M); test: 33P-labeled kinase activity assay, V804M mutant RET; assay type: biochemical; details: 33P-ATP at Km concentration
Chain of human V804M mutant RET kinase (P07949 29-1114 V804M): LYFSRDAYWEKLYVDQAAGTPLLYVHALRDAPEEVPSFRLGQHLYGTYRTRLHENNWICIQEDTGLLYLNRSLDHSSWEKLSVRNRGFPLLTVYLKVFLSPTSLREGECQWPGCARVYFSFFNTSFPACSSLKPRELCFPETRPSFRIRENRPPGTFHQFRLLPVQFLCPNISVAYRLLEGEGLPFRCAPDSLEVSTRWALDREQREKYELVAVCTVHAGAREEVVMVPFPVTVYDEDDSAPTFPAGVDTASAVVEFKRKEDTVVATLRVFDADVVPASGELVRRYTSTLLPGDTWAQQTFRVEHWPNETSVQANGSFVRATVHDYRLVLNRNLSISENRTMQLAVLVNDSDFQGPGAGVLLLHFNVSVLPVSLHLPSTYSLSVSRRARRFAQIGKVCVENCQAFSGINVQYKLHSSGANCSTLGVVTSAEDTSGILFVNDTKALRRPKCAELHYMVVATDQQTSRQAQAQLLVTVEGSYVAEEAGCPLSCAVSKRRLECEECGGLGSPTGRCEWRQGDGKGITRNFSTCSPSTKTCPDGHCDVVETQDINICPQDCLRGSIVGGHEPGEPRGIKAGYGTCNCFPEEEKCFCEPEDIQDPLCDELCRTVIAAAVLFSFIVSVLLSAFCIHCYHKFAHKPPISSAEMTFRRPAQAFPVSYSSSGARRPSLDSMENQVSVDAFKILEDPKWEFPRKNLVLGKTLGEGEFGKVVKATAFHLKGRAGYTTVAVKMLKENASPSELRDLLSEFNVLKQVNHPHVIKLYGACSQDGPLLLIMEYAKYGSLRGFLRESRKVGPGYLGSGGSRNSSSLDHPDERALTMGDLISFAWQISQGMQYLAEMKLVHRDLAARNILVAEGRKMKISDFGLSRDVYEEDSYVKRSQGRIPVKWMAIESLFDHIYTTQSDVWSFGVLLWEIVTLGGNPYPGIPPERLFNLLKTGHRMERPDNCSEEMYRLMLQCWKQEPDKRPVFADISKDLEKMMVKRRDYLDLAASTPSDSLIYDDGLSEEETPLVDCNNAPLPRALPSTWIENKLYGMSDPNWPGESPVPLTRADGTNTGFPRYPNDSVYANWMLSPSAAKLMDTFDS
Protocol: as §1, §2, §3, §4

[3] = Microsome metabolic stability, human; assay type: in vitro ADME; details: human liver microsomes, 1 μM compound, 0.5 mg/mL; read-out: MMS CLint(liver)-H
Protocol: (§5) To evaluate the Phase I metabolic stability of the test compound in animal and human liver microsomes.
(§6) 10 μL of the test compound working solution and 80 μL of microsome working solution (0.625 mg/mL liver microsome protein) were added to the reaction plate and NCF60 plate, respectively, while only microsome working solution was added to the Blank60 plate, then, the above incubation plates were placed in a 37° C. water bath for pre-incubation for approximately 10 minutes.
(§7) After the pre-incubation, 10 μL of a NADPH regeneration system working solution was added into each sample well of all the plates except the NCF60 plate and TO plate to start the reaction, and 10 μL of potassium phosphate buffer was added to each well of the NCF60 plate. The final reaction concentrations of the test sample or control sample were 1 μM, the concentration of the liver microsomes was 0.5 mg/mL.
(§8) After incubation for an appropriate time, 300 μL of a stop solution (acetonitrile solution containing 200 ng/mL tolbutamide) was added to each sample well to stop the reaction; stop solution and then NADPH regeneration system working solution were added to the TO plate in sequence.
(§9) All the sample plates were shaken and centrifuged at 3220 rpm for 20 min, and then 100 μL of supernatant was taken from each well and diluted with 300 μL of pure water for LC-MS/MS analysis. […]

[4] = Microsome metabolic stability, cynomolgus monkey; assay type: in vitro ADME; details: cynomolgus monkey liver microsomes, 1 μM compound, 0.5 mg/mL; read-out: MMS CLint(liver)-C
Protocol: as §5, §6, §7, §8, §9

[5] = Microsome metabolic stability, Beagle; assay type: in vitro ADME; details: dog; Beagle liver microsomes, 1 μM compound, 0.5 mg/mL; read-out: MMS CLint(liver)-D
Protocol: as §5, §6, §7, §8, §9

[6] = Microsome metabolic stability, rat; assay type: in vitro ADME; details: rat liver microsomes, 1 μM compound, 0.5 mg/mL; read-out: MMS CLint(liver)-R
Protocol: as §5, §6, §7, §8, §9

[7] = Microsome metabolic stability, mice; assay type: in vitro ADME; details: mouse; mice liver microsomes, 1 μM compound, 0.5 mg/mL; read-out: MMS CLint(liver)-M
Protocol: as §5, §6, §7, §8, §9

CYP1A2 = CYP1A2 (Homo sapiens (Human), UniProt P05177); test: CYP inhibition in human liver microsomes, CYP1A2; assay type: in vitro ADME; details: 0.05-50 μM
Chain of CYP1A2 (P05177 whole entry): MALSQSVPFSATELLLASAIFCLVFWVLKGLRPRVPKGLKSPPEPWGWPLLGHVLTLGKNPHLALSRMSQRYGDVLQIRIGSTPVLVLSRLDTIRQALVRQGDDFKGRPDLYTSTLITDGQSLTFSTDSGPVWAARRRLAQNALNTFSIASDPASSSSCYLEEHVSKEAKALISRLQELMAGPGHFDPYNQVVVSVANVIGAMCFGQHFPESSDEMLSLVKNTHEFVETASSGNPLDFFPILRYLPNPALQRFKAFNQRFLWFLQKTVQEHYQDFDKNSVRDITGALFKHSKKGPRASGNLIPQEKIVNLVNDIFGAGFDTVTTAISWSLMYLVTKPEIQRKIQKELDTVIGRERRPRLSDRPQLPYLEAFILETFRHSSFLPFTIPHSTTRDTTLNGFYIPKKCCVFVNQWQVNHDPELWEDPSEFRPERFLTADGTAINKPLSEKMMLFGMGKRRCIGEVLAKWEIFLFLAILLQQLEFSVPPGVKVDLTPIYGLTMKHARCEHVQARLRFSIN
Protocol: (§10) Mixed probe substrate of CYP isozymes were used to evaluate the inhibition of compounds of the present disclosure to human liver microsomal cytochrome P450 isoenzymes (CYP1A2, CYP2C9, CYP2C19, CYP2D6, and CYP3A4).
(§11) The testing compound was dissolved in DMSO to prepare a 10 mM stock solution. 178 μL of the mixture solution of human liver microsomes and substrate was added into non-inhibitor control (NIC) wells and test compound sample wells of the reaction plate, and the reaction plate was placed on ice. 2 μL of blank solvent and test compound working solution was taken from the dilution plate, respectively, and then added into the reaction plate (final concentration: 0.05-50 μM). The reaction plate was preheated in a 37±0.2° C. water bath for 10 minutes. 20 μL of cofactor solution was added into the reaction plate using a liquid handling workstation to initiate the reaction.
(§12) After 10 minutes, 400 μL of stop solution was added to the reaction plate to stop the reaction, and the reaction plate was placed on ice for 5 minutes. […] The peak areas of the substrate and product were detected by liquid chromatography tandem mass spectrometry (LC/MS/MS). […]
(§13) A nonlinear regression analysis of mean percentage activity of the test compound against concentration was performed using SigmaPlot (V.11). The IC50 value was calculated using a three- or four-parameter inverse logarithmic equation. […]

CYP2C9 = CYP2C9 (Homo sapiens (Human), UniProt P11712); test: CYP inhibition in human liver microsomes, CYP2C9; assay type: in vitro ADME; details: 0.05-50 μM
Chain of CYP2C9 (P11712 whole entry): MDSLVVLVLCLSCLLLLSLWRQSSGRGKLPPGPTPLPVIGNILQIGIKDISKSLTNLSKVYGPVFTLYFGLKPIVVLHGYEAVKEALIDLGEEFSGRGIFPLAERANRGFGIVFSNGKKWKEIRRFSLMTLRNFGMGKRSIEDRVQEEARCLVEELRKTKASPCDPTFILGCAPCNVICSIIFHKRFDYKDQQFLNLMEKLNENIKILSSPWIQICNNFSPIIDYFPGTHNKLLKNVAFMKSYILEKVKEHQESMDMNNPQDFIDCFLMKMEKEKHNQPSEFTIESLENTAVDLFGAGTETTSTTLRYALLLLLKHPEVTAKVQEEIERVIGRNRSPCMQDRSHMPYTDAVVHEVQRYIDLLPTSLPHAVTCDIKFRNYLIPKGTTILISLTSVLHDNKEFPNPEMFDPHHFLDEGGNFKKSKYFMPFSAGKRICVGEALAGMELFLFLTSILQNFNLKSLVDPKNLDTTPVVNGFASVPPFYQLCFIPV
Protocol: as §10, §11, §12, §13

CYP2C19 = CYP2C19 (Homo sapiens (Human), UniProt P33261); test: CYP inhibition in human liver microsomes, CYP2C19; assay type: in vitro ADME; details: 0.05-50 μM
Chain of CYP2C19 (P33261 whole entry): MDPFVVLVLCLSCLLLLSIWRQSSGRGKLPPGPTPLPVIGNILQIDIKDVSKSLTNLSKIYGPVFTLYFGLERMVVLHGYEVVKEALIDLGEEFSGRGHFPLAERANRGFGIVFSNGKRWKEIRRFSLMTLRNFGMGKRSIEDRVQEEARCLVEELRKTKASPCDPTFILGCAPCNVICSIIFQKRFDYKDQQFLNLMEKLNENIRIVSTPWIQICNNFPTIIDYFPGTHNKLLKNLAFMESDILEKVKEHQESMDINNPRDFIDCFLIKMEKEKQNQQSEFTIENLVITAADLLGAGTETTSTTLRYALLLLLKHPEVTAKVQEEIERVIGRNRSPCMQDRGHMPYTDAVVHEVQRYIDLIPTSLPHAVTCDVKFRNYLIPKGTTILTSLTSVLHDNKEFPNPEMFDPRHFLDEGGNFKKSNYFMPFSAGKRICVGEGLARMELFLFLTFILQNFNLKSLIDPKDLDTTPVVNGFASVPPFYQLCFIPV
Protocol: as §10, §11, §12, §13

CYP2D6 = CYP2D6 (Homo sapiens (Human), UniProt P10635); test: CYP inhibition in human liver microsomes, CYP2D6; assay type: in vitro ADME; details: 0.05-50 μM
Chain of CYP2D6 (P10635 whole entry): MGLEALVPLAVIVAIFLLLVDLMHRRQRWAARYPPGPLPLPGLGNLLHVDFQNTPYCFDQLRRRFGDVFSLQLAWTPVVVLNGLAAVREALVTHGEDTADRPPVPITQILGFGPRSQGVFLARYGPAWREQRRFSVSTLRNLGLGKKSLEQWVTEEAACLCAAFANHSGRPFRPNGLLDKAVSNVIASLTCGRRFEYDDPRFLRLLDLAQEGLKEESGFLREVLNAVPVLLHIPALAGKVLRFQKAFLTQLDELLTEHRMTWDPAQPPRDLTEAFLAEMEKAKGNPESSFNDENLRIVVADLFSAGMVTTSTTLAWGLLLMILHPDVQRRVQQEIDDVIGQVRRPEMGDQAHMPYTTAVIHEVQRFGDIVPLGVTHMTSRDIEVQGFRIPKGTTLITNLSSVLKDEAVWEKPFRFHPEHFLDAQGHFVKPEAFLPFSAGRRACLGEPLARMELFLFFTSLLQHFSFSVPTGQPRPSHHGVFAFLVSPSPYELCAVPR
Protocol: as §10, §11, §12, §13

CYP3A4 = CYP3A4 (Homo sapiens (Human), UniProt P08684); test: CYP inhibition in human liver microsomes, CYP3A4; assay type: in vitro ADME; details: 0.05-50 μM
Chain of CYP3A4 (P08684 whole entry): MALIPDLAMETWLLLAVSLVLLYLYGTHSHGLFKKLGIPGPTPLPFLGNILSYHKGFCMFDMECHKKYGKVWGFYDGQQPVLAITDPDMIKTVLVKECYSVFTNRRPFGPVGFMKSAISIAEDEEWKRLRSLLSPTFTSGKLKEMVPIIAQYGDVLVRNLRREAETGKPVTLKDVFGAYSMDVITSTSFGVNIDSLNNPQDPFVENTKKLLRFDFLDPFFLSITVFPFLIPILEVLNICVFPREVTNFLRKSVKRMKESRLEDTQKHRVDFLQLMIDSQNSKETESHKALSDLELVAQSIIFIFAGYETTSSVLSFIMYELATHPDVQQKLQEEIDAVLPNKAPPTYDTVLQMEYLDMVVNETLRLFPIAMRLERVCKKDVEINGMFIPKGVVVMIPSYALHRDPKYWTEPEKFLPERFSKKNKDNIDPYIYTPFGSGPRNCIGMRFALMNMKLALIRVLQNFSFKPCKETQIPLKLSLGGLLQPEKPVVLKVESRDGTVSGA
Protocol: as §10, §11, §12, §13

[8] = Pharmacokinetics study of mice; assay type: in vivo; details: mouse, male CD-1 mice, plasma
From the text: The purpose of this experiment was to study the pharmacokinetics of the test compound in the plasma of male CD-1 mice after intravenous injection and oral administration.
The animals were randomly divided into two groups with 2 males in each group. The compounds were formulated into prescribed preparations. Intravenous formulations were formulated with 5% DMS 0/95% (6% hydroxypropyl-β-cyclodextrin) to give a clear solution, and oral preparations were formulated with 0.1% Tween80/0.5% HPMC aqueous solution to give a homogeneous suspension.
Whole blood samples were collected from the saphenous vein of the animals 5 minutes, 15 minutes, 30 minutes, 1 hour, 2 hours, 4 hours, 8 hours, 12 hours, and 24 hours after administration. The whole blood sample was added to the centrifuge tube containing anticoagulant, and centrifuged at 3200 g for 10 minutes at 4° C. The supernatant of plasma was taken, frozen quickly on dry ice, and then stored in a −70±10° C. refrigerator until LC-MS/MS analysis.
WinNonlin™ Version 6.3.0 (Pharsight, Mountain View, Calif.) pharmacokinetic software was used to process the plasma drug concentration data of the compounds with a non-compartmental model. The peak concentration (Cmax), peak time (Tmax) and quantifiable end time were obtained directly from the blood drug concentration-time profile.
The following pharmacokinetic parameters were calculated using the log-linear trapezoid method: Plasma clearance rate (CL), volume of distribution (Vd), elimination phase half-life (T1/2), average residence time of drug in the body from 0 to the end time point (MRT0-last), average residence time of the drug in the body from 0 to infinite time (MRT0-inf), area under the time-plasma concentration curve from 0 to the end time point (AUC0_last), area under the time-plasma concentration curve from 0 to infinite time (AUC0-inf) and bioavailability (F).

[9] = 0.5 mg/kg, 0.5 mpk intravenous injection
[10] = 2.5 mg/kg, 2.5 mpk oral administration

Chain of human wild-type RET kinase (P07949 29-1114): as the sequence (P07949 29-1114 V804M) above, with M776V counted along it

## CCN1CCN(Cc2cc(F)c(NC(=O)Cc3ccc(-c4cnc5cc(OC)c(OC)cc5c4)nc3)cc2C(F)(F)F)CC1 [Compound 1]
[1]
  IC50: 0.5 nM
[2]
  IC50: 0.9 nM
[3]
  CLint scaled at 1 μM: 20.7 mL/min/kg
[4]
  CLint scaled at 1 μM: 127 mL/min/kg
[5]
  CLint scaled at 1 μM: 22.5 mL/min/kg
[6]
  CLint scaled at 1 μM: < 17.3 mL/min/kg
[7]
  CLint scaled at 1 μM: 88.5 mL/min/kg
CYP1A2
  IC50: > 50 µM
CYP2C9
  IC50: 12.5 µM
CYP2C19
  IC50: 16.9 µM
CYP2D6
  IC50: 18.8 µM
CYP3A4
  IC50: > 50 µM
[8]; [9]
  AUC(0-inf): 5.19 µM·h
  C0: 1300 nM
  clearance: 2.68 mL/min/kg
  half-life: 416 min
[8]; 0.5 mg/kg, 0.5 mpk intravenous injection, read-out: Vdss
  Vd: 1.52 L/kg
[8]; [10]
  AUC(0-inf): 12.5 µM·h
  Cmax: 958 nM
  Tmax: 8 h
  half-life: 310 min
